Experimental data from PMC6345968, “Structural basis for species-selective targeting of Hsp90 in a pathogenic fungus” (Nature Communications, 2019).
“And” between values parts separate entries of the source, which are not always exact repeats. Identical values can stand only once. Like-named read-outs stand apart in the source and are kept apart here.

Columns and labels:
[1] = test system: Hsp90 in HEPG2 lysate; details: for FP signal (raw) / FP signal: HepG2 lysate; for FP signal: raw
[2] = molecular target: human Grp94 NBD (Homo sapiens, UniProt P14625); experiment: biochemical
[3] = test system: Hsp90 in 3T3 lysate; experiment: FP competition in whole-cell lysate; format: binding, mouse; details: quiescent 3T3 cells, FP
Method: After vortexing, cell lysate was frozen at −80 °C for 2 h, followed by thawing on ice. The vortex-freeze-thaw step was repeated. […] Aliquots were thawed immediately prior to use.

[4] = molecular target: T1, Hsp90 in C. albicans (SC5314) lysate (Candida albicans, UniProt P46598); experiment: biochemical; format: binding; details: for FP signal: raw
T1 construct: endogenous in cells; host or cells: C. albicans SC5314 whole-cell lysate

[5] = molecular target: T2, C. albicans Hsp90 NBD (Candida albicans, UniProt P46598); experiment: biochemical; format: binding
T2 construct: C. albicans Hsp90 (E7-K218); made in house; host or cells: E. coli Rosetta2

[6] = SC5314 lysate, 0.457 nM compound
[7] = SC5314 lysate, 1.372 nM compound
[8] = SC5314 lysate, 4.115 nM compound
[9] = SC5314 lysate, 12.346 nM compound
[10] = SC5314 lysate, 37.037 nM compound
[11] = SC5314 lysate, 111.111 nM compound
[12] = SC5314 lysate, 333.333 nM compound
[13] = SC5314 lysate, 1000 nM compound
[14] = SC5314 lysate, 3000 nM compound

human Grp94 NBD, sequence (P14625 63-337): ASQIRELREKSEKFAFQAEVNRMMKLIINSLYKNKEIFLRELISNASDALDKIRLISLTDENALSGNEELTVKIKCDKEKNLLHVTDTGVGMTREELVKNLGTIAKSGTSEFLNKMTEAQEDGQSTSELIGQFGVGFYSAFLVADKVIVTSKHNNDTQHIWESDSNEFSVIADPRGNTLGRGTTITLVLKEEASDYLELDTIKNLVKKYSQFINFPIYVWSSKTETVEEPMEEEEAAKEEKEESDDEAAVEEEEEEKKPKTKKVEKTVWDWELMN
T1 sequence (P46598 whole entry): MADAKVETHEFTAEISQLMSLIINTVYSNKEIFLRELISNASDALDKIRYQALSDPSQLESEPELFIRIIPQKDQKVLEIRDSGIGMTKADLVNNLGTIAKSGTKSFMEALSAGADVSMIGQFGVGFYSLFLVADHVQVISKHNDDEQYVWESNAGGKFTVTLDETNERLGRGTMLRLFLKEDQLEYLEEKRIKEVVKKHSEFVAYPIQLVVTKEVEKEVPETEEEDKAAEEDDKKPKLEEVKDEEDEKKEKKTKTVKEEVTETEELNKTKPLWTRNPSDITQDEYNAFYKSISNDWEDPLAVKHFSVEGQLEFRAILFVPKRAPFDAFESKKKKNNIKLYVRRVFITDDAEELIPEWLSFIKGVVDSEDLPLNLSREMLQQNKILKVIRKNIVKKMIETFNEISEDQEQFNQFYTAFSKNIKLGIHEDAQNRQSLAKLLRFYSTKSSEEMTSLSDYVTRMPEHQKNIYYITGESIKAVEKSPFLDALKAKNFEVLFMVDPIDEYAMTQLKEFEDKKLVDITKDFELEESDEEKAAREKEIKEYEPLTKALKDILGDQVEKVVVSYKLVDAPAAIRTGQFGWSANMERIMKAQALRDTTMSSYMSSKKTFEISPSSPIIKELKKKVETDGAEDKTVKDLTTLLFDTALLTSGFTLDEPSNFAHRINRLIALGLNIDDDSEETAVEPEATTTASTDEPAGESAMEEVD
T2 sequence (P46598 7-218): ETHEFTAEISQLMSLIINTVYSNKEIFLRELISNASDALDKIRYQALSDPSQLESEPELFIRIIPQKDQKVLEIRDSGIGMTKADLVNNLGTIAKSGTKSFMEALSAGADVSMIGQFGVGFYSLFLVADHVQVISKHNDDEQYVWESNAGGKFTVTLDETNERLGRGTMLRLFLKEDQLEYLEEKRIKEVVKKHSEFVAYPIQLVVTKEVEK

## COc1ccc(CON=C2C=CC=CC3OC3CC(C)OC(=O)c3c(O)cc(O)cc3C2)cc1 (stereo not shown) [CMLD013075]
[1]; EC50 / EC50 of GdA in HepG2 lysate
  Ratio rel. GdA (HepG2): 135.257
[1]; EC50 relative to GdA, HEPG2 lysate
  Ratio rel. GdA (HepG2): 135.257
[1]; HEPG2 lysate, log concentration 0.137354 (1.372 nM)
  FP signal, Fxn Control: 0.9857
[1]; HEPG2 lysate, log concentration 0.61437 (4.115 nM)
  FP signal, Fxn Control: 0.9905
[1]; HEPG2 lysate, log concentration 1.09153 (12.346 nM)
  FP signal, Fxn Control: 1
[1]; HEPG2 lysate, log concentration 1.56864 (37.037 nM)
  FP signal, Fxn Control: 1.005
[1]; HEPG2 lysate, log concentration 2.04576 (111.111 nM)
  FP signal, Fxn Control: 0.9905
[1]; HEPG2 lysate, log concentration 2.52288 (333.333 nM)
  FP signal, Fxn Control: 0.9762
[1]; HEPG2 lysate, log concentration 3 (1000 nM)
  FP signal, Fxn Control: 0.8333
[1]; HEPG2 lysate, log concentration 3.47712 (3000 nM)
  FP signal, Fxn Control: 0.5286
[1]; HEPG2 lysate, log concentration -0.340084 (0.457 nM)
  FP signal, Fxn Control: 0.9857
[1]; 0.457 nM
  FP signal (raw): 207
[1]; 0.457 nM compound
  FP signal: 207
[1]; 1.372 nM
  FP signal (raw): 207
[1]; 1.372 nM compound
  FP signal: 207
[1]; 4.115 nM
  FP signal (raw): 208
[1]; 4.115 nM compound
  FP signal: 208
[1]; 12.346 nM
  FP signal (raw): 210
[1]; 12.346 nM compound
  FP signal: 210
[1]; 37.037 nM
  FP signal (raw): 211
[1]; 37.037 nM compound
  FP signal: 211
[1]; 111.111 nM
  FP signal (raw): 208
[1]; 111.111 nM compound
  FP signal: 208
[1]; 333.333 nM
  FP signal (raw): 205
[1]; 333.333 nM compound
  FP signal: 205
[1]; 1000 nM
  FP signal (raw): 175
[1]; 1000 nM compound
  FP signal: 175
[1]; 3000 nM
  FP signal (raw): 111
[1]; 3000 nM compound
  FP signal: 111
[2]; I50, single experiments Expt 1-3
  IC50: 429 nM and 490 nM and 261 nM
[2]; IC50 (Equation 16), corrected I50, single experiments, unit inferred
  IC50: 426 nM and 486 nM and 257 nM
[2]; Inhibitor Ki, single experiments Expt 1-3
  Ki: 43.6 nM and 48.9 nM and 26.4 nM
[2]; Ki, purified NBD, Cy3-GdA probe, mean (± SEM) of 3 experiments
  Ki: 39.6 nM
[3]
  relative binding affinity in 3T3 lysate vs HEPG2 lysate: lower in 3T3 lysate than HEPG2 lysate
[4]; C. albicans SC5314 vs HEPG2 lysate, FP
  normalized fungal selectivity in lysates: 4.6 fold
[4]; C. albicans vs HEPG2 and 3T3 lysates, FP
  relative binding affinity in fungal vs mammalian lysates: higher
[4]; EC50, SC5314 lysate, not normalized, oxime panel experiment 220817
  EC50: 505 nM
[4]; EC50 relative to GdA, SC5314 lysate
  Ratio re. GdA: 29.6649
[4]; SC5314 lysate, 0.457 nM
  FP signal (raw): 200
[4]; [6]
  FP signal relative to 0 nM: 0.9709
  FP signal: 200
[4]; SC5314 lysate, 1.372 nM
  FP signal (raw): 200
[4]; [7]
  FP signal relative to 0 nM: 0.9709
  FP signal: 200
[4]; SC5314 lysate, 4.115 nM
  FP signal (raw): 199
[4]; [8]
  FP signal relative to 0 nM: 0.966
  FP signal: 199
[4]; SC5314 lysate, 12.346 nM
  FP signal (raw): 199
[4]; [9]
  FP signal relative to 0 nM: 0.966
  FP signal: 199
[4]; SC5314 lysate, 37.037 nM
  FP signal (raw): 196
[4]; [10]
  FP signal relative to 0 nM: 0.9515
  FP signal: 196
[4]; SC5314 lysate, 111.111 nM
  FP signal (raw): 182
[4]; [11]
  FP signal relative to 0 nM: 0.8835
  FP signal: 182
[4]; SC5314 lysate, 333.333 nM
  FP signal (raw): 146
[4]; [12]
  FP signal relative to 0 nM: 0.7087
  FP signal: 146
[4]; SC5314 lysate, 1000 nM
  FP signal (raw): 69
[4]; [13]
  FP signal relative to 0 nM: 0.335
  FP signal: 69
[4]; SC5314 lysate, 3000 nM
  FP signal (raw): 40
[4]; [14]
  FP signal relative to 0 nM: 0.1942
  FP signal: 40
[4]; ratio of GdA-normalized EC50s, human over fungal lysate
  HepG2/SC5314: 4.5595
[4]; ratio of GdA-relative EC50 ratios, HepG2 over SC5314
  HepG2/SC5314: 4.5595
[5]; corrected I50, single experiments, unit inferred, read-out: IC50 (Equation 16)
  IC50: 77.3 nM and 78.8 nM and 44 nM
[5]; purified NBD, Cy3-GdA probe, mean (± SEM) of 3 experiments, read-out: Ki
  Ki: 7.7 nM
[5]; purified NBDs, FP
  selectivity for fungal Hsp90 NBD over human Grp94 NBD: ~ 5 fold and 5 fold
  selectivity for fungal Hsp90 NBD over human Hsp90 NBD: ~ 28 fold and > 25 fold
[5]; single experiments Expt 1-3, read-out: I50
  IC50: 82.3 nM and 83.8 nM and 47.8 nM
[5]; single experiments Expt 1-3, read-out: Inhibitor Ki
  Ki: 8.8 nM (2×) and 5.5 nM
